Test results taken from ChEMBL document CHEMBL4138123, “Design, synthesis and biological evaluation of novel pyrazolochalcones as potential modulators of PI3K/Akt/mTOR pathway and inducers of apoptosis in breast cancer cells” (Eur J Med Chem, 2017).

Columns and labels:
Type in all cases: functional
[1] = test system: Hs-578T; experiment: Cytotoxicity against human Hs 578T cells assessed as cell growth at 0.01 uM after 48 hrs by sulforhodamine B assay relative to control; conditions: read-out: Activity
[2] = test system: Hs-578T; experiment: Cytotoxicity against human Hs 578T cells assessed as cell growth at 10 uM after 48 hrs by sulforhodamine B assay relative to control; conditions: read-out: Activity
[3] = test system: OVCAR-5; experiment: Cytotoxicity against human OVCAR5 cells assessed as cell growth at 10 uM after 48 hrs by sulforhodamine B assay relative to control; conditions: OVCAR-5, 48 h, read-out: Activity
[4] = test system: UACC-62; experiment: Cytotoxicity against human UACC62 cells assessed as cell growth at 0.01 uM after 48 hrs by sulforhodamine B assay relative to control; conditions: UACC-62, 48 h, read-out: Activity
[5] = test system: COLO 205; experiment: Cytotoxicity against human COLO205 cells assessed as cell growth at 0.01 uM after 48 hrs by sulforhodamine B assay relative to control; conditions: COLO 205, 48 h, read-out: Activity
[6] = test system: SK-MEL-28; experiment: Cytotoxicity against human SK-MEL-28 cells assessed as cell growth at 0.1 uM after 48 hrs by sulforhodamine B assay relative to control; conditions: SK-MEL-28, 48 h, read-out: Activity
[7] = test system: OVCAR-4; experiment: Cytotoxicity against human OVCAR4 cells assessed as cell growth at 0.1 uM after 48 hrs by sulforhodamine B assay relative to control; conditions: OVCAR-4, 48 h, read-out: Activity
[8] = test system: OVCAR-5; experiment: Cytotoxicity against human OVCAR5 cells assessed as growth inhibition after 48 hrs by sulforhodamine B assay; conditions: OVCAR-5, 48 h
[9] = test system: TK-10; experiment: Cytotoxicity against human TK10 cells assessed as cell growth at 100 uM after 48 hrs by sulforhodamine B assay relative to control; conditions: TK-10, 48 h, read-out: Activity
[10] = test system: OVCAR-3; experiment: Cytotoxicity against human OVCAR3 cells assessed as cell growth at 10 uM after 48 hrs by sulforhodamine B assay relative to control; conditions: OVCAR-3, 48 h, read-out: Activity
[11] = test system: M14; experiment: Cytotoxicity against human M14 cells assessed as cell growth at 0.01 uM after 48 hrs by sulforhodamine B assay relative to control; conditions: M14, 48 h, read-out: Activity
[12] = test system: HCC 2998; experiment: Cytotoxicity against human HCC2998 cells assessed as cell growth at 10 uM after 48 hrs by sulforhodamine B assay relative to control; conditions: HCC 2998, 48 h, read-out: Activity
[13] = test system: SR; experiment: Cytotoxicity against human SR cells assessed as cell growth at 10 uM after 48 hrs by sulforhodamine B assay relative to control; conditions: read-out: Activity
[14] = test system: OVCAR-8; experiment: Cytotoxicity against human OVCAR8 cells assessed as cell growth at 10 uM after 48 hrs by sulforhodamine B assay relative to control; conditions: OVCAR-8, 48 h, read-out: Activity
[15] = test system: KM12; experiment: Cytotoxicity against human KM12 cells assessed as cell growth at 0.1 uM after 48 hrs by sulforhodamine B assay relative to control; conditions: KM12, 48 h, read-out: Activity
[16] = test system: SK-MEL-28; experiment: Cytotoxicity against human SK-MEL-28 cells assessed as growth inhibition after 48 hrs by sulforhodamine B assay; conditions: SK-MEL-28, 48 h
[17] = test system: 786-0; experiment: Cytotoxicity against human 786-0 cells assessed as cell growth at 0.01 uM after 48 hrs by sulforhodamine B assay relative to control; conditions: 786-0, 48 h, read-out: Activity
[18] = test system: MOLT-4; experiment: Cytotoxicity against human MOLT4 cells assessed as cell growth at 10 uM after 48 hrs by sulforhodamine B assay relative to control; conditions: MOLT-4, 48 h, read-out: Activity
[19] = test system: HT-29; experiment: Cytotoxicity against human HT-29 cells assessed as cell growth at 0.1 uM after 48 hrs by sulforhodamine B assay relative to control; conditions: HT-29, 48 h, read-out: Activity
[20] = test system: DU-145; experiment: Cytotoxicity against human DU145 cells assessed as growth inhibition after 48 hrs by sulforhodamine B assay; conditions: DU-145, 48 h; for CC50: read-out: LC50 (the source's name)
[21] = test system: T47D; experiment: Cytotoxicity against human T47D cells assessed as cell growth at 100 uM after 48 hrs by sulforhodamine B assay relative to control; conditions: read-out: Activity
[22] = test system: 786-0; experiment: Cytotoxicity against human 786-0 cells assessed as cell growth at 100 uM after 48 hrs by sulforhodamine B assay relative to control; conditions: 786-0, 48 h, read-out: Activity
[23] = test system: PC-3; experiment: Cytotoxicity against human PC3 cells assessed as cell growth at 0.01 uM after 48 hrs by sulforhodamine B assay relative to control; conditions: PC-3, 48 h, read-out: Activity
[24] = test system: IGROV-1; experiment: Cytotoxicity against human IGROV1 cells assessed as growth inhibition after 48 hrs by sulforhodamine B assay; conditions: IGROV-1, 48 h
[25] = test system: A549; experiment: Cytotoxicity against human A549/ATCC cells assessed as cell growth at 1 uM after 48 hrs by sulforhodamine B assay relative to control; conditions: A549, 48 h, read-out: Activity
[26] = test system: SK-MEL-5; experiment: Cytotoxicity against human SK-MEL-5 cells assessed as cell growth at 0.1 uM after 48 hrs by sulforhodamine B assay relative to control; conditions: SK-MEL-5, 48 h, read-out: Activity
[27] = test system: MCF7; experiment: Cytotoxicity against human MCF7 cells assessed as cell growth at 0.1 uM after 48 hrs by sulforhodamine B assay relative to control; conditions: MCF7, 48 h, read-out: Activity
[28] = test system: SF-539; experiment: Cytotoxicity against human SF539 cells assessed as cell growth at 0.01 uM after 48 hrs by sulforhodamine B assay relative to control; conditions: SF-539, 48 h, read-out: Activity
[29] = test system: MOLT-4; experiment: Cytotoxicity against human MOLT4 cells assessed as cell growth at 0.01 uM after 48 hrs by sulforhodamine B assay relative to control; conditions: MOLT-4, 48 h, read-out: Activity
[30] = test system: M14; experiment: Cytotoxicity against human M14 cells assessed as cell growth at 0.1 uM after 48 hrs by sulforhodamine B assay relative to control; conditions: M14, 48 h, read-out: Activity
[31] = test system: COLO 205; experiment: Cytotoxicity against human COLO205 cells assessed as cell growth at 100 uM after 48 hrs by sulforhodamine B assay relative to control; conditions: COLO 205, 48 h, read-out: Activity
[32] = test system: OVCAR-4; experiment: Cytotoxicity against human OVCAR4 cells assessed as cell growth at 1 uM after 48 hrs by sulforhodamine B assay relative to control; conditions: OVCAR-4, 48 h, read-out: Activity
[33] = test system: SK-MEL-5; experiment: Cytotoxicity against human SK-MEL-5 cells assessed as cell growth at 0.01 uM after 48 hrs by sulforhodamine B assay relative to control; conditions: SK-MEL-5, 48 h, read-out: Activity
[34] = test system: TK-10; experiment: Cytotoxicity against human TK10 cells assessed as cell growth at 0.1 uM after 48 hrs by sulforhodamine B assay relative to control; conditions: TK-10, 48 h, read-out: Activity
[35] = test system: ACHN; experiment: Cytotoxicity against human ACHN cells assessed as cell growth at 1 uM after 48 hrs by sulforhodamine B assay relative to control; conditions: read-out: Activity
[36] = test system: OVCAR-3; experiment: Cytotoxicity against human OVCAR3 cells assessed as cell growth at 100 uM after 48 hrs by sulforhodamine B assay relative to control; conditions: OVCAR-3, 48 h, read-out: Activity
[37] = test system: ACHN; experiment: Cytotoxicity against human ACHN cells assessed as growth inhibition after 48 hrs by sulforhodamine B assay

With `COc1cc2c(cc1OC)C(=O)/C(=C/c1cc(-c3ccc4c(c3)OCO4)n[nH]1)C2` the growth at 0.01 µM [1] was 95%, the growth at 10 µM [2] was -9% and the growth at 10 µM [3] was -92%. It also gave a growth at 0.01 µM [4] of 100%, a growth at 0.01 µM [5] of 98% and a growth at 0.1 µM [6] of 101%. It also gave a growth at 0.1 µM [7] of 98%, a GI50 [8] of 1560 nM and an LC50 [8] of 5.79 µM. It also gave a TGI [8] of 3 µM, a growth at 100 µM [9] of -95% and a growth at 10 µM [10] of -92%. The growth at 0.01 µM [11] was 99%, the growth at 10 µM [12] was -88% and the growth at 10 µM [13] was -24%. For the same molecule, the growth at 10 µM [14] was -89%, the growth at 0.1 µM [15] was 99% and the GI50 [16] was 1890 nM. For the same molecule, the LC50 [16] was 6.09 µM, the TGI [16] was 3.4 µM and the growth at 0.01 µM [17] was 96%. For the same molecule, the growth at 10 µM [18] was -18%, the growth at 0.1 µM [19] was 103% and the GI50 [20] was 1450 nM. For the same molecule, the TGI [20] was 2.86 µM, the CC50 [20] was 5.64 µM and the growth at 100 µM [21] was -93%. It also gave a growth at 100 µM [22] of -93%, a growth at 0.01 µM [23] of 94% and a GI50 [24] of 1890 nM. For the same molecule, the LC50 [24] was 14.3 µM, the TGI [24] was 4.58 µM and the growth at 1 µM [25] was 83%. It also gave a growth at 0.1 µM [26] of 93%, a growth at 0.1 µM [27] of 89% and a growth at 0.01 µM [28] of 100%. It also gave a growth at 0.01 µM [29] of 100%, a growth at 0.1 µM [30] of 96% and a growth at 100 µM [31] of -88%. The growth at 1 µM [32] was 57%, the growth at 0.01 µM [33] was 95% and the growth at 0.1 µM [34] was 88%. For the same molecule, the growth at 1 µM [35] was 94%, the growth at 100 µM [36] was -90% and the GI50 [37] was 1730 nM. For the same molecule, the LC50 [37] was 6.04 µM and the TGI [37] was 3.23 µM.

Molecule `COc1ccc(-c2cc(/C=C/C(=O)c3cc(OC)c(OC)c(OC)c3)[nH]n2)cc1OC` has a growth at 0.01 µM [1] of 95%, a growth at 10 µM [2] of 9% and a growth at 10 µM [3] of -47%. The growth at 0.01 µM [4] was 96%, the growth at 0.01 µM [5] was 99% and the growth at 0.1 µM [6] was 91%. It also gave a growth at 0.1 µM [7] of 73%, a GI50 [8] of 1760 nM and an LC50 [8] of 13.7 µM. The TGI [8] was 4.31 µM, the growth at 100 µM [9] was -94% and the growth at 10 µM [10] was -85%. For the same molecule, the growth at 0.01 µM [11] was 96%, the growth at 10 µM [12] was -93% and the growth at 10 µM [13] was -10%. The growth at 10 µM [14] was 6%, the growth at 0.1 µM [15] was 92% and the GI50 [16] was 1910 nM. It also gave an LC50 [16] of 10.6 µM, a TGI [16] of 4.41 µM and a growth at 0.01 µM [17] of 100%. The growth at 10 µM [18] was -4%, the growth at 0.1 µM [19] was 99% and the GI50 [20] was 1830 nM. For the same molecule, the TGI [20] was 4.12 µM, the CC50 [20] was 9.28 µM and the growth at 100 µM [21] was -47%. For the same molecule, the growth at 100 µM [22] was -90%, the growth at 0.01 µM [23] was 97% and the GI50 [24] was 2720 nM. The LC50 [24] was 46.7 µM, the TGI [24] was 8.61 µM and the growth at 1 µM [25] was 82%. The growth at 0.1 µM [26] was 102%, the growth at 0.1 µM [27] was 86% and the growth at 0.01 µM [28] was 95%. For the same molecule, the growth at 0.01 µM [29] was 99%, the growth at 0.1 µM [30] was 92% and the growth at 100 µM [31] was -88%. The growth at 1 µM [32] was 66%, the growth at 0.01 µM [33] was 101% and the growth at 0.1 µM [34] was 89%. For the same molecule, the growth at 1 µM [35] was 78%, the growth at 100 µM [36] was -83% and the GI50 [37] was 1450 nM. For the same molecule, the LC50 [37] was 5.5 µM and the TGI [37] was 2.82 µM.
